Where “and” joins values, the source holds several entries; their conditions need not be identical. Identical values can stand only once. Like-named read-outs stand apart in the source and are kept apart here.
Columns and labels:
threespine stickleback [1] = assay: Long-term static bioassay, threespine stickleback; conditions: 32 days, 10 C, individually
threespine stickleback [2] = tested on: threespine stickleback; parameters: species or system Gasterosteus aculeatus; conditions: in vivo
Kamloops trout = assay: Static bioassay, lethal concentration to Kamloops trout; type: in vivo, Kamloops (an adfluvial rainbow trout)
Protocol: (§1) Bioassays utilized water from an artesian well at Moscow, Idaho and from the headwaters of the Palouse River, also in Idaho. The chemical characteristics of the artesian water were analyzed as follows: Total hardness 67-120 mg/l; total dissolved solids, 160-175 mg/l; and pH 7.1. The chemistry of the Palouse River water was analyzed as follows: total hardness 17 mg/l; methyl orange alkalinity 26 mg/l; total dissolved solids, 32 mg/l and pH, 7.0.
(§2) Fish were acclimated to test temperatures, usually at 5, 7.5, 10, 15 and 20 degrees Celsius (C), at least 60 hours before exposure to toxicants. For fish and crayfish four water baths regulated the temperature of assay aquaria. Each water bath contained a battery of 20 identical 19-liter clear glass containers or 11.4-liter plastic aquaria lined with disposable polyethylene bags and covered with Plexiglass lids to reduce evaporation. For larger fish and large numbers of fish the bioassays were made in two temperature controlled rooms that contained a series of 700-liter circular fiberglass vats and a series of 76- and 91-liter plastic containers.
(§3) Standard bioassay techniques were used in sorting fish and conducting the tests. Fish were placed in aerated test aquaria overnight to permit fish to recover from stress due to handling and to deprive them of food. The average load varied but most bioassays were conducted with about 1 g of fish per liter of water.
(§4) Aliquots of organophosphates were dissolved in ethanol and dispensed to the aquaria to provide concentrations suitable for obtaining the LC0 and LC50 of desirable fish and the LC50 and LC100 of target fish. Control fish were conditioned in the same manner as the test fish, but no chemical was added to the control vessels during the assays. After the addition of a chemical, observations were made mainly at 3, 6, 12, 24, 48, 96, and 192 h. The weight and fork length of fish were obtained when fishes were sacrificed.
(§5) Delineation bioassays determined primarily the LC50 and LC100 of sucker and stickleback and the LC0 and LC50 of salmonids.
(§6) The statistical LC1, LC50, and LC99 were interpolated and/or extrapolated using probit graph paper to approximate the LC0, LC50, and LC100 when the latter set of values was not closely determined by single concentrations in a series.
(§7) The approximate LC50 and LC100 of the target fishes (threespine and brook sticklebacks and bridgelip and white suckers) are tabulated in Table 1. The 96-hour selectivity and safety indices of selected species of salmonids versus the three-spine stickleback are tabulated in Table 3.
(§8) Threespine stickleback, brook stickleback, bridgelip sucker, white sucker, chinook salmon, coho salmon, sockeye salmon, kokanee, Kamloops trout, cutthroat trout, and brook trout were treated with various concentrations of 2, 2, 2, 1-tetrachloroethyl diethyl phosphate and at various temperatures to determine approximate selectivity and safety indices. The approximate LC50 and LC100 of the target fishes (threespine and brook sticklebacks and bridgelip and white suckers) are tabulated in Table 5. The 96-hour selectivity and safety indices of selected species of salmonids versus the threespine stickleback are tabulated in Table 7.

[3] = as above; type: in vivo, Kamloops (an adfluvial rainbow trout); conditions: kamloops trout, in vivo
Protocol: as §1, §2, §3, §4, §5, §6, §7, §8

coho salmon = assay: Long-term static bioassay, coho salmon; conditions: 64 days, 10 C, individually
suckers = assay: Control of suckers in 24-hour applications, usable concentration; type: in vivo
Source text: For field applications the concentration of the dichloro- and tetrachloro-compounds would vary with water quality--mainly with regard to water temperature and hydrogen ion concentrations. Generally, treated areas would contain water low in dissolved solids and a pH of 7 to 7.5. The activity of the chemicals would then be essentially similar to that determined in our tests using river water. For the treatment of rivers and shorelines of lakes the concentrations of the dichloro- and tetrachloro-compounds that would be used would be those that would kill stickleback or suckers in 12 to 24 hours. The information above, relating to Examples 1 and 12, substantiates improvement in fish culture by the addition of dichloroethyl or dichlorovinyl diethyl phosphate to an aqueous habitat at a concentration in water ranging between 0.1 and 10 mg/l. […] The information above, relating to Example 2, substantiates improvement in fish culture by the addition of tetrachloroethyl diethyl phosphate to an aqueous habitat at a concentration in water ranging between 4 and 80 μg/l.

[4] = Half-life / degradation in water (gas chromatograph analysis); type: physicochemical; conditions: river water, 15 C
Source text: The presence of bacteria and other microorganisms affect the rate of degradation of the dichloro- and tetrachloro-compounds. Because of this the chemicals break down much faster in river water than in artesian well water or distilled water. For short term bioassays the potencies of the chemicals were not affected by the chemistry of the water.

Salmonella, five strains = assay: Salmonella standard plate test for mutagens/carcinogens; conditions: 0.5, 5, 50, 500, and 5000 mg/l
spotted sucker = assay: Exploratory bioassay, spotted sucker; type: in vivo, Minytrema melanops; conditions: less than 24 h; 15 C; 31 to 38 mm
Protocol: Cursory bioassays were made with small numbers of other fishes and a crayfish (Pacifasticus klamathensis) to check on the universal selectivity of the toxicants. The fishes included Arctic grayling (Thymallus arcticus), longnose sucker (C. catastomus), largescale sucker, (C. macrocheilus), and spotted sucker (Minytrema melanops).
A series of five 24-hour biassays was made with the spotted sucker (2 fish per aquarium) at a concentration range of 1 mg/l to 5 mg/l of 2, 2-dichlorovinyl diethyl phosphate. The chemical killed all of the spotted suckers (31 to 38 mm) at 1 mg/l in less than 24 hours at 15 C.

sockeye salmon = assay: Static bioassay, lethal concentration to sockeye salmon; type: in vivo, O. nerka
Protocol: as §1, §2, §3, §4, §5, §6, §7, §8

crayfish = assay: Long-term static bioassay, crayfish; conditions: 2 μg/l; one also missing in control
[5] = 10 C, individually, read-out: LC50
[6] = with 4 Cl 300:1, 10 C, read-out: LC50 in combination, 2 Cl component
[7] = 10 C, 96 h, individually, listed as 2, 2, 2, 1-tetrachloroethyl diethyl phosphate
[8] = 10 C, 96 h, individually, listed as 4 Cl
[9] = with 2 Cl 1:300, 10 C, read-out: LC50 in combination, 4 Cl component

## CCOP(=O)(OC=C(Cl)Cl)OCC [2,2-dichlorovinyl diethyl phosphate]
Threespine stickleback [1]; 600 μg/l
  mortality: 65%
Threespine stickleback [2]
  LC50 in combination, 2 Cl component: 300 µg/L and 200 µg/L
Kamloops trout; 5 C, 48 h
  LC0: > 4.0 mg/L
Kamloops trout; 5 C, 96 h
  LC0: 2.0 mg/L
Kamloops trout; 5 C, 192 h
  LC0: 1.4 mg/L
Kamloops trout; 10 C, 48 h
  LC0: > 4.0 mg/L
Kamloops trout; 10 C, 96 h
  LC0: 2.0 mg/L
Kamloops trout; 10 C, 96 h, individually
  LC0: 2 mg/L
Kamloops trout; 10 C, 192 h
  LC0: 1.0 mg/L
Kamloops trout; 15 C, 48 h
  LC0: 3.0 mg/L
Kamloops trout; 15 C, 96 h
  LC0: 1.0 mg/L
Kamloops trout; 15 C, 192 h
  LC0: 1.0 mg/L
[3]; 5 C, read-out: LC50
  LC50 at 192 h: 5.1 µg/mL
[3]; [5]
  LC50 at 96 h: 5 µg/mL
  LC50 at 192 h: 2 µg/mL
[3]; 10 C, read-out: LC50
  LC50 at 96 h: 5.4 µg/mL
  LC50 at 192 h: 2 µg/mL
[3]; 15 C, read-out: LC50
  LC50 at 96 h: 3.5 µg/mL
  LC50 at 192 h: 3 µg/mL
[3]; [6]
  LC50 at 96 h: 2.4 µg/mL
  LC50 at 192 h: 1.5 µg/mL
Coho salmon; 300 μg/l
  mortality: essentially no mortality
Coho salmon; 300 μg/l, listed as 2, 2-dichlorovinyl diethyl phosphate
  mortality: no significant mortality
suckers; 10 to 15 C, river water tests
  recommended safe and effective concentration: 1.0 mg/L
[4]
  half-life: < 20 days
Salmonella, five strains
  mutagenic activity: no mutagenic activity
Spotted sucker
  concentration that killed all of the spotted suckers: 1 mg/L
Sockeye salmon; 7.5 C, 48 h
  LC0: > 10000 µg/L
Sockeye salmon; 7.5 C, 96 h
  LC0: 6000 µg/L
Sockeye salmon; 7.5 C, 192 h
  LC0: 2000 µg/L
Sockeye salmon; 10 C, 48 h
  LC0: 6000 µg/L
Sockeye salmon; 10 C, 96 h
  LC0: 3000 µg/L
Sockeye salmon; 10 C, 96 h, individually, listed as 2, 2-dichlorovinyl diethyl phosphate
  LC0: 3000 µg/L
Sockeye salmon; 10 C, 96 h, individually, listed as 2 Cl
  LC0: 3600 µg/L
Sockeye salmon; 10 C, 192 h
  LC0: 2000 µg/L

## CCOP(=O)(OCC)OC(Cl)C(Cl)(Cl)Cl (centres unmarked) [2,2,2,1-tetrachloroethyl diethyl phosphate]
Threespine stickleback [1]; 4 μg/l
  mortality: 100%
crayfish
  crayfish missing: one
Threespine stickleback [2]
  LC50 in combination, 4 Cl component: 1.0 µg/L and 0.67 µg/L
  concentration achieving 100% mortality: 7 mg/L
Kamloops trout; 5 C, 96 h
  LC0: 0.024 mg/L
Kamloops trout; 5 C, 192 h
  LC0: 0.012 mg/L
Kamloops trout; [7]
  LC0: 0.018 mg/L and 0.014 mg/L
Kamloops trout; [8]
  LC0: 0.014 mg/L
Kamloops trout; 10 C, 192 h
  LC0: 0.01 mg/L
Kamloops trout; 15 C, 96 h
  LC0: 0.024 mg/L
Kamloops trout; 15 C, 192 h
  LC0: 0.014 mg/L
[3]; 5 C, read-out: LC50
  LC50 at 96 h: > 0.03 µg/mL
  LC50 at 192 h: 0.018 µg/mL
[3]; [5]
  LC50 at 96 h: 0.024 µg/mL
  LC50 at 192 h: 0.02 µg/mL
[3]; 15 C, read-out: LC50
  LC50 at 96 h: > 0.024 µg/mL
  LC50 at 192 h: > 0.024 µg/mL
[3]; [9]
  LC50 at 96 h: 0.008 µg/mL
  LC50 at 192 h: 0.005 µg/mL
Coho salmon; 6 μg/l (or less)
  mortality: Essentially no mortality
Coho salmon; 6 μg/l (or less), listed as 2, 2, 2, 1-tetrachloroethyl diethyl phosphate
  mortality: no significant mortality
suckers; relative to 6 to 4 μg/l for stickleback, 10 C
  estimated LC100 of the sucker: essentially the same
[4]
  half-life: ~11 days
Salmonella, five strains
  mutagenic activity: no mutagenic activity
Sockeye salmon; 7.5 C, 48 h
  LC0: 36 µg/L
Sockeye salmon; 7.5 C, 96 h
  LC0: 14 µg/L
Sockeye salmon; 7.5 C, 192 h
  LC0: 10 µg/L
Sockeye salmon; 10 C, 48 h
  LC0: 20 µg/L
Sockeye salmon; 10 C, 96 h, individually
  LC50: 17 µg/L
Sockeye salmon; [7]
  LC0: 12 µg/L and 10 µg/L
Sockeye salmon; [8]
  LC0: 12 µg/L
Sockeye salmon; 10 C, 192 h
  LC0: 10 µg/L
Sockeye salmon; 10 C, 192 h, individually, listed as 4 Cl, 11520 min
  LC50: 15 µg/L

Reference: patent US4395969A (priority 1981, dated 1983)
